The source of these data is patent US20240217946A1, “ANTIDEPRESSANT AND ANXIOLYTIC SUBSTITUTED CINNAMAMIDE COMPOUND” (TASLY PHARMACEUTICAL GROUP CO., LTD., priority 2021, published 2024).

Each structure is given as a SMILES string. Entries after “also recorded” stand apart in the source; their conditions may differ.

One test relates to C57 BL/6J male mice. The experiment in a line: Forced swimming experiment in mice. It counts as in vivo. From the text:
1) Forced Swimming Experiment: Also Known as Despair Experiment, an Experiment Usually Used to Test Depression-Like Behavior of Mice
• Animal: C57 BL/6J male mice (18-20 g)
Intraperitoneal injection (i.p)

In a further test the test system is mice. The conditions noted are these: 10 mg/kg for 7 days; cited from earlier work.

Regarding `NC(=O)/C=C/c1cc2c(c(C(F)(F)F)c1)OCO2` [Compound M2], the antidepressant-like effect entry in the test with C57 BL/6J male mice (24 h after a single i.p. administration, fluoxetine 10 mg/kg, esketamine 10 mg/kg, M2 3-30 mg/kg) is “had antidepressant-like effect”. Moreover, the “immobility time of mice in forced swimming” value in the test with C57 BL/6J male mice (24 h after single i.p. administration, dosage effect, significant at 30 mg/kg, 30 mg/kg) is listed as “reduce the immobility time; also recorded: significantly reduced”.

As to `CC(C)CNC(=O)/C=C/c1cc2c(c(C(F)(F)F)c1)OCO2` [Compound I-5], the “immobility time of tail suspension in mice” value in the test with mice is listed as “significantly shorten the immobility time”.
